Test results from the Kinase Knowledgebase extract (Sharma et al. 2016).

Columns and labels:
MAPK14 (murine) = assay: Inhibition of MAPK14 Kinase Activity
MAPK14 (human) = MAPK14 (human) (UniProt Q16539); assay: Inhibition of LPS Induced TNF-alpha Release in Human PBMC
Sequence of MAPK14 (human) (Q16539 whole entry, looked up): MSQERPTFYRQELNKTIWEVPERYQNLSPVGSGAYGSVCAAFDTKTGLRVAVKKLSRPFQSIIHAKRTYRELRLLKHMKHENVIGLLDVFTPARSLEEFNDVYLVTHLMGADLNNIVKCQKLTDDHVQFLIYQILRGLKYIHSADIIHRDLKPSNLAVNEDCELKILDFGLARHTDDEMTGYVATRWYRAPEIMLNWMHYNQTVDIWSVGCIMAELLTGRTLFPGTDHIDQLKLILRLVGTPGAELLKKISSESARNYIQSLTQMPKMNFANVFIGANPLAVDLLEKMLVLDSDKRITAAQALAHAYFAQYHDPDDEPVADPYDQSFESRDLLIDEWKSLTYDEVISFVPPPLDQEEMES

SMILES | IC50 (MAPK14 (murine)) | IC50 (MAPK14 (human))
CN1CCC(O)(c2nc(-c3ccc(F)cc3)c(-c3ccncc3)s2)CC1 | 450 nM | 
Fc1ccc(-c2nc(C3CCNCC3)oc2-c2ccnc(NC3CCCCC3)n2)cc1 | 11 nM | 9 nM
C[C@@H](Nc1nccc(-n2c(-c3ccc(F)cc3)nc3nc(N4CCN(C)CC4)ccc32)n1)c1ccccc1 | 6 nM | 1 nM
C[C@H](Nc1cc(-c2sc(C3CCNCC3)nc2-c2ccc(F)cc2)ccn1)c1ccccc1 | 4 nM | 
CN1CCC(O)(c2nc(-c3ccc(F)cc3)c(-c3ccncc3)[nH]2)CC1 | 90 nM | 
CN1CCC(O)(c2nc(-c3ccc(F)cc3)c(-c3ccncc3)o2)CC1 | 350 nM | 
Fc1ccc(-c2nc(C3CCNCC3)oc2-c2ccnc(NC3CCCCC3)c2)cc1 | 15 nM | 0.2 nM
